Test results: US11667632B2, “2-(1H-indazol-3-yl)-3H-imidazo[4,5-C]pyridines and their anti-inflammatory uses thereof” (BioSplice Therapeutics, Inc., priority 2015, dated 2023)

Tested on: IL-6
Experiment: Inhibition of IL-6 in LPS-stimulated human monocyte cells (THP-1), HTRF
Type: cell-based
Conditions: THP-1 cells; for EC50: Homo sapiens, LPS 500 ng/mL, IL-6 by HTRF; for percent inhibition of IL-6 at 10 μM: LPS-stimulated, dose-response starting from 10 μM
Procedure: Human Monocyte Cell Culture: A human monocyte cell line (THP-1 cells; Catalog #TIB-202, ATCC, Manassas, Va.) was cultured in Roswell Park Memorial Institute (RPMI) 1640 Medium (Catalog #21870-100, Buffalo, N.Y.) with 1% L-glutamine, 1% HEPES, 1% sodium pyruvate, 2% sodium bicarbonate supplemented with 100 units/mL penicillin, 50 μg/mL streptomycin, 2-mercaptoethanol (0.05 mM) [basal medium] and 10% fetal bovine serum (Catalog #16140089, Life Technologies, Carlsbad, Calif.) at 37° C. and 5% CO2.
Compound Screening: THP-1 cells were cultured in basal media with 1% FBS for 24 hours before the start of the assay. Each compound of Formula (I) was dissolved in DMSO as a 10 mM stock and used to prepare compound source plates. Serial dilution (1:3, 10-point dose-response curves starting from 10 μM) and compound transfer was performed using the ECHO 550 (Labcyte, Sunnyvale, Calif.) into 384-well white low volume assay plates (Greiner Bio-One) with appropriate DMSO backfill for a final DMSO concentration of 0.1%. THP-1 cells were plated at 5000 cells/well in the 384-well plates and incubated at 37° C. for 2 h. 500 ng/mL of LPS was added after 2 hours and cells were incubated for another 22 hours at 37° C. Plates were spun in a centrifuge for 1 minute at 10,000 rpm and a mixture of anti-IL-6 XL665, and anti-IL-6 Cryptate diluted in reconstitution buffer (Cisbio Inc.) was added to each well. Following incubation for 3 hrs at room temperature, homogeneous time-resolved fluorescence (HTRF) was measured using the Envision (Perkin Elmer) at 665 nm and […]. The ratio of fluorescence at 665 nm to 620 nm was used as a readout for IL-6 quantification. All samples were processed in duplicate. Readings were normalized to DMSO treated cells and normalized activities were utilized for EC50 calculations using the dose-response log (inhibitor) vs. response -variable slope (four parameters) nonlinear regression feature available in GraphPad Prism 5.0 (or Dotmatics). For EC50 of >10 μM, the percent inhibition at 10 μM is provided.

EC50 [nM]	Structure (SMILES)	percent inhibition of IL-6 at 10 μM
433	c1cc(-c2cncc3[nH]c(-c4n[nH]c5ccc(-c6cncc(CN7CCCCC7)c6)cc45)nc23)ccn1 [Compound 164]	–
474	CN1CCN(c2cncc3[nH]c(-c4n[nH]c5ccc(-c6cncc(N)c6)cc45)nc23)CC1 [Compound 247]	–
19	O=C(Nc1cncc(-c2ccc3[nH]nc(-c4nc5c(-c6cccc(F)c6)cncc5[nH]4)c3c2)c1)C1CCCCC1 [Compound 94]	–
5870	O=C(Nc1cncc(-c2ccc3[nH]nc(-c4nc5c(-c6ccoc6)cncc5[nH]4)c3c2)c1)C1CC1 [Compound 330]	–
1180	CN(C)Cc1cncc(-c2ccc3[nH]nc(-c4nc5c(-c6ccccn6)cncc5[nH]4)c3c2)c1 [Compound 186]	–
7240	O=C(Nc1cncc(-c2ccc3[nH]nc(-c4nc5c(-c6ccc(F)cc6)cncc5[nH]4)c3c2)c1)c1ccccc1 [Compound 104]	–
40	Cc1ccncc1-c1ccc2[nH]nc(-c3nc4c(-c5ccc(F)cc5)cncc4[nH]3)c2c1 [Compound 99]	–
232	c1cncc(-c2ccc3[nH]nc(-c4nc5c(N6CCOCC6)cncc5[nH]4)c3c2)c1 [Compound 6]	–
134	CN(C)Cc1cncc(-c2ccc3[nH]nc(-c4nc5c(-c6cncc(F)c6)cncc5[nH]4)c3c2)c1 [Compound 16]	–
97	FC1(F)CCN(Cc2cncc(-c3ccc4[nH]nc(-c5nc6c(-c7cccnc7)cncc6[nH]5)c4c3)c2)C1 [Compound 339]	–
37	FC1(F)CCN(Cc2cncc(-c3ccc4[nH]nc(-c5nc6c(-c7ccsc7)cncc6[nH]5)c4c3)c2)C1 [Compound 346]	–
40	CC(C)(C)CC(=O)Nc1cncc(-c2ccc3[nH]nc(-c4nc5c(-c6ccsc6)cncc5[nH]4)c3c2)c1 [Compound 304]	–
34	CC(C)CC(=O)Nc1cncc(-c2ccc3[nH]nc(-c4nc5c(-c6cc(F)cc(CNS(C)(=O)=O)c6)cncc5[nH]4)c3c2)c1 [Compound 373]	–
45	CC(C)CC(=O)Nc1cncc(-c2ccc3[nH]nc(-c4nc5c(-c6ccc(F)cc6)cncc5[nH]4)c3c2)c1 [Compound 12]	–
451	CC(C)CC(=O)Nc1cncc(-c2ccc3[nH]nc(-c4nc5c(N6CCN(C)CC6)cncc5[nH]4)c3c2)c1 [Compound 1]	–
16	CCC(=O)Nc1cncc(-c2ccc3[nH]nc(-c4nc5c(-c6ccccn6)cncc5[nH]4)c3c2)c1 [Compound 174]	–
127	CN(C)Cc1cncc(-c2ccc3[nH]nc(-c4nc5c(-c6ccsc6)cncc5[nH]4)c3c2)c1 [Compound 301]	–
14	O=C(Nc1cncc(-c2ccc3[nH]nc(-c4nc5c(N6CCCCC6)cncc5[nH]4)c3c2)c1)C1CCC1 [Compound 217]	–
122	Nc1cncc(-c2ccc3[nH]nc(-c4nc5c(-c6ccc(F)cc6)cncc5[nH]4)c3c2)c1 [Compound 97]	–
> 10000	c1cc(-c2cncc3[nH]c(-c4n[nH]c5ccc(-c6cncc(CNCC7CCCC7)c6)cc45)nc23)ccn1 [Compound 173]	(11.7%)
42	CC(C)(C)CC(=O)Nc1cncc(-c2ccc3[nH]nc(-c4nc5c(-c6cccc(F)c6)cncc5[nH]4)c3c2)c1 [Compound 90]	–
224	CN1CCN(c2cncc3[nH]c(-c4n[nH]c5ccc(-c6cncc(NC(=O)C7CCCCC7)c6)cc45)nc23)CC1 [Compound 263]	–
47	CC(C)Nc1cncc(-c2ccc3[nH]nc(-c4nc5c(-c6ccccc6F)cncc5[nH]4)c3c2)c1 [Compound 124]	–
2260	CC(C)C(=O)Nc1cncc(-c2ccc3[nH]nc(-c4nc5ccncc5[nH]4)c3c2)c1 [Compound 9]	–
15	CCC(=O)Nc1cncc(-c2ccc3[nH]nc(-c4nc5c(-c6cncc(F)c6)cncc5[nH]4)c3c2)c1 [Compound 20]	–

EC50 [nM]	Structure (SMILES)	percent inhibition of IL-6 at 10 μM
71	Fc1cccc(-c2cncc3[nH]c(-c4n[nH]c5ccc(-c6cncc(CN7CCC(F)(F)C7)c6)cc45)nc23)c1 [Compound 336]	–
97	CN1CCN(c2cncc3[nH]c(-c4n[nH]c5ccc(-c6cncc(NC(=O)CC(C)(C)C)c6)cc45)nc23)CC1 [Compound 257]	–
50	O=C(Nc1cncc(-c2ccc3[nH]nc(-c4nc5c(-c6ccc(F)cc6)cncc5[nH]4)c3c2)c1)C1CCC1 [Compound 111]	–
34	CC(C)CC(=O)Nc1cncc(-c2ccc3[nH]nc(-c4nc5c(-c6cc(F)cc(NCCN(C)C)c6)cncc5[nH]4)c3c2)c1 [Compound 349]	–
58	Cc1ccncc1-c1ccc2[nH]nc(-c3nc4c(-c5ccsc5)cncc4[nH]3)c2c1 [Compound 293]	–
188	Cc1ccncc1-c1ccc2[nH]nc(-c3nc4c(-c5ccncc5)cncc4[nH]3)c2c1 [Compound 154]	–
2430	CN1CCN(c2cncc(-c3ccc4[nH]nc(-c5nc6ccncc6[nH]5)c4c3)c2)CC1 [Compound 7]	–
216	c1cc(-c2cncc3[nH]c(-c4n[nH]c5ccc(-c6cncc(CNCC7CCCC7)c6)cc45)nc23)cs1 [Compound 311]	–
311	c1ncc(-c2ccc3[nH]nc(-c4nc5c(N6CCCCC6)cncc5[nH]4)c3c2)cc1CN1CCCC1 [Compound 211]	–
78	CC(C)(C)C(=O)Nc1cncc(-c2ccc3[nH]nc(-c4nc5c(-c6ccoc6)cncc5[nH]4)c3c2)c1 [Compound 319]	–
109	FC1(F)CCN(Cc2cncc(-c3ccc4[nH]nc(-c5nc6c(N7CCCCC7)cncc6[nH]5)c4c3)c2)C1 [Compound 342]	–
44	CN(C)Cc1cncc(-c2ccc3[nH]nc(-c4nc5c(-c6cccc(F)c6)cncc5[nH]4)c3c2)c1 [Compound 89]	–
> 10000	Nc1cncc(-c2ccc3[nH]nc(-c4nc5ccncc5[nH]4)c3c2)c1 [Compound 268]	(27.6%)
14	CC(C)CC(=O)Nc1cncc(-c2ccc3[nH]nc(-c4nc5c(-c6cccs6)cncc5[nH]4)c3c2)c1 [Compound 397]	–
103	O=C(Nc1cncc(-c2ccc3[nH]nc(-c4nc5c(-c6ccoc6)cncc5[nH]4)c3c2)c1)C1CCCCC1 [Compound 333]	–
1010	c1cc(-c2cncc3[nH]c(-c4n[nH]c5ccc(-c6cncc(CN7CCCCC7)c6)cc45)nc23)cs1 [Compound 303]	–
19	O=C(Nc1cncc(-c2ccc3[nH]nc(-c4nc5c(-c6cccc(F)c6)cncc5[nH]4)c3c2)c1)C1CC1 [Compound 91]	–
47	CN(C)c1cncc(-c2ccc3[nH]nc(-c4nc5c(-c6ccsc6)cncc5[nH]4)c3c2)c1 [Compound 295]	–
30	c1ccc(-c2cncc3[nH]c(-c4n[nH]c5ccc(-c6cccnc6)cc45)nc23)nc1 [Compound 177]	–
> 10000	c1cc(-c2cncc3[nH]c(-c4n[nH]c5ccc(-c6cncc(CN7CCCC7)c6)cc45)nc23)ccn1 [Compound 163]	(30.0%)
> 10000	O=C(Cc1ccccc1)Nc1cncc(-c2ccc3[nH]nc(-c4nc5ccncc5[nH]4)c3c2)c1 [Compound 274]	(24.1%)
42	O=C(Cc1ccccc1)Nc1cncc(-c2ccc3[nH]nc(-c4nc5c(-c6cccc(F)c6)cncc5[nH]4)c3c2)c1 [Compound 86]	–
19	CCC(=O)Nc1cncc(-c2ccc3[nH]nc(-c4nc5c(-c6cccc(F)c6)cncc5[nH]4)c3c2)c1 [Compound 24]	–
> 10000	O=C(Nc1cncc(-c2ccc3[nH]nc(-c4nc5ccncc5[nH]4)c3c2)c1)c1ccccc1 [Compound 275]	(9.9%)
